“And” between values parts separate entries of the source, which are not always exact repeats. Equal entries are not always repeated.
What was measured:
[1] = tested on: SirT1 mRNA in Kelly cells; experiment: SirT1 mRNA in Kelly neuroblastoma cells; assay type: cell-based, human; conditions: 5 µM, 24 h, vs DMSO control
Procedure: Human neuroblastoma ‘Kelly’ cells (genotype APOE3/APOE4) were plated in 96-well plates at 50K cells per well and were grown overnight in RPMI 1640 supplemented with 2 mM Glutamine, 10% FBS and 1% Pen-Strep. Cells were treated with 5 µM DDL-214, -218, or -219; or DMSO vehicle (n = 8 per compound). Twenty-four hours later, medium was removed, cells washed and lysed as described above for N2a-E4 cells.
Total RNA was isolated from cells or brain tissue (Qiagen RNEasy kit). Total RNA (0.5–1.0 µg) mRNA was then converted to cDNA (SuperScript™ III First-Strand Synthesis SuperMix kit; Thermo Fisher), and gene mRNA levels were measured using a gene-specific qRT-PCR Taqman assays (Thermo Fisher). Gene mRNA levels were normalized to GAPDH mRNA levels measured either in the same cDNA sample or in the same qPCR reaction using multiplexing of gene-of-interest/VIC and GAPDH/FAM, normalized by the delta-delta-Ct method.

[2] = In vivo pharmacokinetic analysis, brain levels after oral gavage; set-up: species or system C57BL/6J mice; conditions: for brain levels: single time point one hour, oral gavage 30 mg/Kg, n = 1
Procedure: […] One hour later, mice were euthanized by pentobarbital over-anesthesia and trans-cardial collection of blood for isolation of plasma by centrifugation at 10,000 x g for 10 min at 4 °C. Brain tissue was collected for analysis, frozen on dry ice and stored at -80 °C before analysis.
For LC/MS/MS analysis, tissue samples were homogenized in a bead beater using 5 volumes of ice-cold 80% acetonitrile (1/5; mg of tissue/ µL of 80% ACN). Solutions were clarified by centrifugation (16,000 x g, 5 min) and the supernatants were transferred to new tubes and lyophilized. Samples were reconstituted in 100 µL of 50/50/0.1 (water/acetonitrile/formic acid) before analysis via liquid chromatography-tandem mass spectrometry.
A 6460 triple quadrupole mass spectrometer (Agilent Technologies) coupled to a 1290 Infinity HPLC system (Agilent Technologies) with a Phenomenex analytical column (Kinetex 1.7 μm C18 100 Å 100 × 2.1 mm) was used for HPLC. The HPLC method utilized a mixture of solvent A (99.9/1 water/formic acid) and solvent B (99.9/1 acetonitrile/formic acid) and a gradient was used for the elution of the compounds (min/%B: 0/20, 3/20, 19/99, 20/99, 21/20, 30/20).
An internal standard (IS; Reserpine) was added to every sample to account for compound loss during sample processing. Standards were made in drug naïve brain and plasma with increasing amounts of DDL-214- (S1,S2: 0.1 pmol/ S3,S4: 1 pmol/ S5,S6: 10 pmol/ S7,S8: 100 pmol/ S9,S10: 1000 pmol). The standard curve was made by plotting the amount of each compound per standard vs. the ratio of measured chromatographic peak areas corresponding to DDL-214 (DDL-214 -/Reserpine). The trendline equation was then used to calculate the absolute concentrations of DDL-214/-218/-219 in brain tissue and plasma.

[3] = tested on: SirT1 protein in N2a-E4 cells; experiment: SirT1 protein levels in N2a-E4 cells (AlphaLISA); assay type: cell-based, murine; conditions: N2a-E4 cells, 5 µM, 24 h, vs DMSO control
Procedure: Relative SirT1 mRNA and protein enhancement by racemate DDL-214 and enantiomers DDL-218 and − 219 was determined in murine neuroblastoma cells stably transfected with ApoE4 (N2a-E4)[25]. All test compounds in DMSO were prepared at 2x the final concentration in DMEM supplemented with 10% fetal bovine serum (FBS) and 1% pen-strep (PS) and 50 µL of each loaded into individual wells of a 96-well plate. Previously cultured N2a-E4 were then trypsinized, harvested, centrifuged, and counted; then 50 µL of cell suspension adjusted to 400 cells/µL was added to each well. The plate was then incubated at 37 °C, 5% CO2 for 48 h. Cells were treated with DDL-214, DDL-218, or DDL-219 at 5 µM final then incubated for 24 h. After incubation, the cells were lysed with 50 µL of ice-cold lysis buffer (0.4% SDS, 3.5% Triton X-100, 0.02% sodium deoxycholate, 28 mM TRIS pH 8) complemented with 1X final Halt™ Protease and Phosphatase Inhibitor Cocktail (Thermo Fisher catalog # 78442), placed on ice for 10 min and at -80 °C, followed by 3 freeze/thaw cycles.
An AlphaLISA comprising streptavidin donor beads (Revvity catalog # 6760002 S), biotinylated anti-SirT1 N-terminal antibody (monoclonal 19A7AB4, Abcam catalog # ab110304), and acceptor beads (Revvity catalog # 6772001) conjugated to the anti-SirT1 C-terminal antibody (monoclonal 1F3, Abcam catalog # ab104833) was used to determine SirT1 protein levels. […] The plates were read using an Envision plate reader.
Figure S3B. […] Compound treatment was done at 5 and 50 µM. SirT1 levels were measured by AlphaLISA followed and normalized to protein […]
Brain tissue was homogenized in PBS (pH 7.4) (1: 3 weight(mg)/volume(µL)) and the protein concentration of was determined using the Micro BCA™ Protein Assay Kit (Thermo Fisher Scientific, Cat#23235). […]
The % of the unbound drug (fu,bound) was calculated using the following equation: fu,bound = [normalized peak area in buffer side / normalized peak area in brain side] x 100 Liver Microsome Stability [t1/2 (min)] […]

[4] = Observation of mice behavior in the PK study; assay type: in vivo; conditions: oral gavage 10 or 30 mg/Kg
Procedure: C57BL/6J mice were administered DDL-214, -218, or -219 (n = 3 per compound) by oral gavage at a dose of 30 mg/kg in a volume of 5 mL/Kg based on mouse weight. One hour later, mice were euthanized by pentobarbital over-anesthesia and trans-cardial collection of blood for isolation of plasma by centrifugation at 10,000 x g for 10 min at 4 °C. Brain tissue was collected for analysis, frozen on dry ice and stored at -80 °C before analysis.

Compound	SirT1 mRNA [1]	brain Cmax ([2]; oral 30 mg/Kg, time course study, 30 mg/kg)	brain Cmax ([2]; oral gavage 10 mg/Kg, wildtype mouse, at one hour, 10 mg/kg)	brain levels ([2]; 30 mg/kg)	SirT1 protein levels [3]	changes in mice behavior indicative of drug-induced toxicity [4]
CC(N)C(=O)OC(C)(C)Cc1ccncc1 (centres unmarked) [DDL-214]	higher than DMSO control, but the difference was not significant	~ 9400 ng/g and 42.3 µM	1270 ng/g and 5.7 µM	~ 3000 ng/g and 13.5 µM	increased SirT1 protein levels	No notable changes in mice behavior
CC(N)C(=O)OC(C)(C)Cc1ccncc1 (centres unmarked) [DDL-219]				~ 6500 ng/g and 29.2 µM		No notable changes in mice behavior

— article PMC12019328, “Discovery of an ApoE4-targeted small-molecule SirT1 enhancer for the treatment of Alzheimer’s disease” (Scientific Reports, 2025)
